Patent US20210299079A1, “MONOMETHYL FUMARATE-CARRIER CONJUGATES AND METHODS OF THEIR USE” (Flagship Pioneering Innovations V, Inc., priority 2018, published 2021)

Molecular target: T1, AhR (Homo sapiens, UniProt P35869)
T1 sequence (P35869 11-848): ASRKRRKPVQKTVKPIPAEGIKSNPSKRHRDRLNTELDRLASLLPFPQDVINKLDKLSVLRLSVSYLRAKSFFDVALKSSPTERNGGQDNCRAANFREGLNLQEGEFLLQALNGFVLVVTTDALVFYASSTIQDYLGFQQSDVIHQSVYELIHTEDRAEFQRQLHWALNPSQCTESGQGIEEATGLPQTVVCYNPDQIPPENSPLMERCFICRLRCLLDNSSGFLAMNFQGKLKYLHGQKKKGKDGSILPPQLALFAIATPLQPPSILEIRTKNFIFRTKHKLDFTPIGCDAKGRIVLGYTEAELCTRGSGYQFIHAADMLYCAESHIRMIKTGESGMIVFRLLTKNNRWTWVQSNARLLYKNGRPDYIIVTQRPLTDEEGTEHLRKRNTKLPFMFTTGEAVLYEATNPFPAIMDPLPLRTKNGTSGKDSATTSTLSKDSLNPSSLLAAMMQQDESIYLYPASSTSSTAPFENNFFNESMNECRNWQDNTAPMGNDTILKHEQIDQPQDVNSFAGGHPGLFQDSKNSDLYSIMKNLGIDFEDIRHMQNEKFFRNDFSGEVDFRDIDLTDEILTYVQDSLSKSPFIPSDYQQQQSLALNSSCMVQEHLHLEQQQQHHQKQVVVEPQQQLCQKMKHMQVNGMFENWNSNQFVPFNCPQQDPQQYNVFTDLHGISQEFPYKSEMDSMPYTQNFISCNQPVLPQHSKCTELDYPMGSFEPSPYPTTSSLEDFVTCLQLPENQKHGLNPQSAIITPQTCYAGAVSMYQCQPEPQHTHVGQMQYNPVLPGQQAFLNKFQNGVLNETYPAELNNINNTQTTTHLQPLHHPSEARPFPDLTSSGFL
Experiment: AhR Activation in Caco-2 Cells Through CYP1A1 mRNA Expression
Conditions: overnight
Method: Caco-2 cells from American Type Culture Collection (ATCC) were plated in a sterile tissue culture treated 96-well plate (ThermoFisher) at 8.0×10^5 cells per well, and grown overnight at 37° C., 5% CO2 in DMEM complete (Gibco) in order to achieve confluence. After the incubation medium was aspirated off of the Caco-2 monolayers, tissues were then washed with 200 μL of warmed PBS solution, and subsequently 190 μL of pre-warmed growth medium was added to each well. Compounds of interest were diluted at a 20× concentration in growth medium containing 2% DMSO, and 10 μL of compound solutions were added to respective wells in triplicate. Compounds where incubated overnight at 37° C., 5% CO2. 2-(1′H-indole-3′-carbonyl)-thiazole-4-carboxylic acid methyl ester (ITE) was used as the positive control for AhR activation at 1 and 100 μM concentrations. At the end of the incubation, medium was aspirated off of the Caco-2 cells, and washed with 100 μL of cold PBS solution. RNA was extracted via the TaqMan™ Gene Expression Cells-to-CT™ Kit (ThermoFisher) according to the manufacturer's protocol. The QuantStudio 6 Flex (Applied Biosciences) was used to analyze mRNA levels of CYP1A1 using GAPDH as the endogenous control. TaqMan™ probe sets for both genes were acquired from ThermoFisher. Samples were run in triplicate and data was analyzed using the QuantStudio software and reported as linear (Table 6) and log 2(ΔΔCT) values. Statistical analysis was performed using a two-tailed t-test comparing CYP1A1 levels in the presence of each individual compound to the vehicle negative control.

For `CCC(=O)O` [propionate], the “Average CYP1A1 mRNA levels” value (Conc. 1000.0 μM) was “− (− = <2-fold Vehicle)” and the “Average CYP1A1 mRNA levels” value (Conc. 3000.0 μM) was “− (− = <2-fold Vehicle)”.
